In experiment [1] the test system is Cdk1 phosphorylated on tyrosine 15. As to the kind of experiment: High-content imaging of pCdk1 Y15 by immunofluorescence in ACHN cells. The experiment is classed as cell-based. Particulars: Homo sapiens, high-content imaging (IF), 4 h, 7 to 5000 nM, read-out: CDK1 Tyr15 Phosphorylation EC50 (IC50). How it is done:
ACHN renal cell carcinoma cell line (ATCC) was cultured in Minimum Essential Medium Eagle supplemented with 10% fetal calf serum (Sigma), 1% Penicillin-Streptomycin and 10 mM HEPES buffer (HyClone). Cell cultures were kept in a humidified incubator at 37° C. and 5% CO2. Cells were routinely tested for Mycoplasma contamination.
High-content imaging of ACHN renal cell carcinoma cells was used for quantification of CDK1 phosphorylated on tyrosine 15 by immunofluorescence (“IF”). 20 000 cells per well were seeded in tissue culture treated 96 well plates and treated with compounds at concentrations ranging from 7 to 5000 nM for 4 h. Cells were fixated for 15 minutes in 4% paraformaldehyde solution, washed in PBS and permeabilized using 0.2% Triton X-100. Blocking was performed for 1 h at RT using Blocker FL Fluorescent Blocking Buffer (Thermo Scientific), thereafter cells were incubated with primary antibody (rabbit anti-pCDK1 Y^15, #4539, Cell Signaling Technology) at 4° C. ON. Alexa Fluor Plus 647 labelled goat anti-rabbit (A32733. Thermo Scientific) was used as secondary antibody. After washing in PBS, nuclei were stained with DAPI solution for 10 min at RT, protected from light. Cells were imaged using an ImageXpress Pico automated imaging system and CellReporter Xpress software (Molecular Devices). The percentage cells with nuclear positivity for pCdk1 Y^15 compared to DMSO control was determined for each well and drug dose response curves and EC50 values were calculated and visualized using GraphPad Prism.

For experiment [2], the target named is T1, recombinant human Wee1A kinase (Homo sapiens, UniProt P30291).
T1 construct: full length Wee1A kinase was expressed by baculovirus in insect cells; purchased Invitrogen PV3817; host or cells: insect cells (baculovirus)
As to the kind of experiment: LanthaScreen Europium (Eu) Kinase Binding Assay, Wee1A kinase (TR-FRET tracer displacement). Conditions: 30 nM tracer 178, 5 nM Wee1A kinase, 60 minutes at room temperature. The source says: We used a LanthaScreen Europium (Eu) Kinase Binding Assay to determine the binding of provided compounds to Wee1A kinase. The assay utilizes an Alexa Fluor 647-labeled ATP competitive kinase tracer that binds to the ATP binding site of a GST-tagged Wee1A kinase, while a europium (Eu) labeled antibody binds to the GST tag. The proximity of fluorescently labeled kinase tracer and europium (Eu) donor fluorophore antibody leads to fluorescence resonance energy transfer (FRET) to the fluorescence label (acceptor) upon excitation of the Eu (donor). Displacement of tracer from the ATP-binding site by a test compound disturbs the proximity between both labels thus lowering the FRET.
This time resolved-FRET binding assay was performed in white 384-well low volume plates (Greiner, cat #784075), at room temperature in kinase buffer A (KBA; Invitrogen cat #PV3189), consisting of 50 mM HEPES-NaOH (pH 7.5), 0.01% Brij-35, 10 mM MgCl2, and 1 mM EGTA. 5 μl of compound (diluted in reaction buffer, to 1% DMSO) were added to various wells in the plate, followed by 5 μl each of recombinant human Wee1A kinase (full length Wee1A kinase was expressed by baculovirus in insect cells using a N-terminal GST tag (MW: 99.1 kDa) (Invitrogen cat #PV3817) and LanthaScreen Eu-anti-GST antibody (Invitrogen, cat #PV5594). After this, 5 μl of kinase tracer 178 (Invitrogen, cat #PV5593) was added to the plate and the plate was incubated for 60 minutes at room temperature. The final assay conditions in each well were: 30 nM tracer 178, 5 nM Wee1A kinase and 2 nM Eu-labeled antibody in total assay volume of 15 μl. An Envision 2104 (Perkin-Elmer) Plate Reader with the following time-resolve fluorescence setting was used for performing LanthaScreen kinase binding assay. • Excitation 320 nm (30 nm bandpass) • Kinase Tracer Emission 665 nm (10 nm bandpass) • LanthaScreen Eu-anti-Tag Antibody Emission 615 nm (10 nm bandpass) • Dichroic Mirror Instrument dependent • Delay Time 100 μs • Integration Time 200 μs
To calculate the emission ratio, the acceptor/tracer emission ([…]) was divided by the antibody/donor emission ([…]) and the average of duplicate measurement was used for calculations. Data plotting, analysis of binding, and curve fitting was done using Excel add-in XLfit version 5.5.0.5 (IDBS, Guildford, United Kingdom).
(In general: In TR-FRET formats the signal depends on donor and acceptor labels being close together.)

T1 sequence (P30291 whole entry): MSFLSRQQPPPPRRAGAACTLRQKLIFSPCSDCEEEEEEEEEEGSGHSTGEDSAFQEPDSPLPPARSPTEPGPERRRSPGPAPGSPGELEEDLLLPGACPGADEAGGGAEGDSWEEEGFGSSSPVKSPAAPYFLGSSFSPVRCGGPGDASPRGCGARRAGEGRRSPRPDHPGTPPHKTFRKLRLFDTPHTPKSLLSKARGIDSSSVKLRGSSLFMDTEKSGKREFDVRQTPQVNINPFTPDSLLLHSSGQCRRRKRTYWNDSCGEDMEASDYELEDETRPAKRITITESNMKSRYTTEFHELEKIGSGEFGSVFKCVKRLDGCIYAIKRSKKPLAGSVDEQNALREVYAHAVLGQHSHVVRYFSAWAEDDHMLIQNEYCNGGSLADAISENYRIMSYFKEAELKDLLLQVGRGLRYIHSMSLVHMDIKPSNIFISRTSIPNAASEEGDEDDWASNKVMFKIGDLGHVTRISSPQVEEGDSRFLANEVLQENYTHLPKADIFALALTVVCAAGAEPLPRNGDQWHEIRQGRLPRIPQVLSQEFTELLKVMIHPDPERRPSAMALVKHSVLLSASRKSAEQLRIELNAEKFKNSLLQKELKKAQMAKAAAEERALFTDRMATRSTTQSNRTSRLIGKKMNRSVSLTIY

For `Cc1cc(Nc2ncc(C(=O)Nc3c(Cl)cccc3Cl)c(OCC(F)(F)F)n2)ccc1C1CCN(C)CC1` [Compound 104, N-(2,6-dichlorophenyl)-2-{[3-methyl-4-(1-methylpiperidin-4-yl)phenyl]amino}-4-(2,2,2-trifluoroethoxy)pyrimidine-5-carboxamide], the EC50 in experiment [1] was 100 to 500 nM. The IC50 in experiment [2] is ≤ 10 nM.
Regarding `COc1nc(Nc2ccc(OCCCN3CCOCC3)c(C)c2)ncc1C(=O)Nc1c(Cl)ccc(O)c1C` [Compound 150, N-(6-chloro-3-hydroxy-2-methylphenyl)-4-methoxy-2-((3-methyl-4-(3-morpholinopropoxy)phenyl)amino)pyrimidine-5-carboxamide], in experiment [1], the EC50 is > 1000 nM. The IC50 in experiment [2] was ≤ 10 nM.
Take `CCOc1nc(Nc2cnn([C@H](C)CN(C)C)c2)ncc1C(=O)Nc1c(Cl)cccc1Br` [Compound 204]: the EC50 in experiment [1] is > 1000 nM. Also, in experiment [2], the IC50 is ≤ 10 nM.
The corresponding values for `COc1nc(Nc2ccc(N3CCC4(CCN(C)CC4)CC3)cc2)ncc1C(=O)Nc1c(Cl)cccc1Br` [Compound 209, N-(2-bromo-6-chlorophenyl)-4-methoxy-2-{p-(9-methyl-3,9-diaza-3-spiro[5.5]undecyl)phenylamino}-5-pyrimidinecarboxamide] are 100 to 500 nM and ≤ 10 nM.
The like results for `CCCOc1cc(Nc2ncc(C(=O)Nc3c(Cl)cccc3Br)c(OC)n2)ccc1C1CCN(C)CC1` [Compound 218, N-(2-bromo-6-chlorophenyl)-4-methoxy-2-((4-(1-methylpiperidin-4-yl)-3-propoxyphenyl)amino)pyrimidine-5-carboxamide] were, in that order, 100 to 500 nM and ≤ 10 nM.
Turning to `COc1nc(Nc2ccc(C3CCN(C)CC3)c(C)c2)ncc1C(=O)Nc1c(Cl)cc(F)cc1Cl` [Compound 121, N-(2,6-dichloro-4-fluorophenyl)-4-methoxy-2-((3-methyl-4-(1-methylpiperidin-4-yl)phenyl)amino)pyrimidine-5-carboxamide], in experiment [1], the half-maximal effective concentration (EC50) fell in the range of 100 to 500 nM. Moreover, in experiment [2], the IC50 is ≤ 10 nM.
The like results for `COc1nc(Nc2ccc(C3CCN(C)CC3)c(C)c2)ncc1C(=O)Nc1c(Br)cccc1C#N` [Compound 134, N-(2-bromo-6-cyanophenyl)-4-methoxy-2-((3-methyl-4-(1-methylpiperidin-4-yl)phenyl)amino)pyrimidine-5-carboxamide] were, in that order, 100 to 500 nM and ≤ 10 nM.
On to `COc1nc(Nc2ccc(OC3CCN(C)CC3)c(C)c2)ncc1C(=O)Nc1c(Cl)cccc1Br` [Compound 220, N-(2-bromo-6-chlorophenyl)-4-methoxy-2-((3-methyl-4-((1-methylpiperidin-4-yl)oxy)phenyl)amino)pyrimidine-5-carboxamide], for which, in experiment [1], the EC50 lay in the range of 100 to 500 nM. For the same molecule, the IC50 in experiment [2] is ≤ 10 nM.
The corresponding values for `COc1nc(Nc2ccc(N3CCCN(C)CC3)cc2)ncc1C(=O)Nc1c(Cl)cccc1Br` [Compound 206, N-(2-bromo-6-chlorophenyl)-4-methoxy-2-[p-(4-methyl-1,4-diazepan-1-yl)phenylamino]-5-pyrimidinecarboxamide] are 100 to 500 nM and ≤ 10 nM.
The like results for `COc1nc(Nc2ccc(OCCN(C)C)c(C)c2)ncc1C(=O)Nc1c(Cl)ccc(O)c1C` [Compound 149, N-(6-chloro-3-hydroxy-2-methylphenyl)-2-((4-(2-(dimethylamino)ethoxy)-3-methylphenyl)amino)-4-methoxypyrimidine-5-carboxamide] were, in that order, 100 to 500 nM and ≤ 10 nM.
The corresponding values for `COc1nc(Nc2ccc(C3CCN(C)CC3)c(C)c2)ncc1C(=O)Nc1c(C)cccc1C(F)(F)F` [Compound 120, 4-methoxy-2-((3-methyl-4-(1-methylpiperidin-4-yl)phenyl)amino)-N-(2-methyl-6-(trifluoromethyl)phenyl)pyrimidine-5-carboxamide] are > 1000 nM and ≤ 10 nM.
With `COc1cc(Nc2ncc(C(=O)Nc3c(Cl)cccc3Br)c(OC)n2)ccc1C1CCN(C)CC1` [Compound 216, N-(2-bromo-6-chlorophenyl)-4-methoxy-2-((3-methoxy-4-(1-methylpiperidin-4-yl)phenyl)amino)pyrimidine-5-carboxamide], in experiment [1], the EC50 fell in the range of 100 to 500 nM. For the same molecule, the IC50 in experiment [2] is ≤ 10 nM.
The like results for `CN1CCN(c2ccc(Nc3ncc(C(=O)Nc4c(Cl)cccc4Cl)c(OC4CC4)n3)cc2)CC1` [Compound 102, 4-cyclopropoxy-N-(2,6-dichlorophenyl)-2-((4-(4-methylpiperazin-1-yl)phenyl)amino)pyrimidine-5-carboxamide] were, in that order, 100 to 500 nM and ≤ 10 nM.
The like results for `COc1nc(Nc2ccc(N3CCNCCC3=O)c(C)c2)ncc1C(=O)Nc1c(Cl)cccc1Cl` [Compound 167] were, in that order, 100 to 500 nM and ≤ 10 nM.
As to `COc1nc(Nc2ccc(C3CCN(C)CC3)c(C)c2)ncc1C(=O)Nc1c(F)ccc(F)c1Cl` [Compound 128, N-(2-chloro-3,6-difluorophenyl)-4-methoxy-2-((3-methyl-4-(1-methylpiperidin-4-yl)phenyl)amino)pyrimidine-5-carboxamide], the EC50 in experiment [1] is 100 to 500 nM. The IC50 in experiment [2] was ≤ 10 nM.
The like results for `COc1nc(Nc2ccc(O[C@@H]3CCN(C)C3)c(C)c2)ncc1C(=O)Nc1c(Cl)cccc1Cl` [Compound 146, (R)—N-(2,6-dichlorophenyl)-4-methoxy-2-((3-methyl-4-((1-methylpyrrolidin-3-yl)oxy)phenyl)amino)pyrimidine-5-carboxamide] were, in that order, ≤ 100 nM and ≤ 10 nM.
The like results for `COc1nc(Nc2ccc(O[C@@H]3CCN(C)C3)c(C)c2)ncc1C(=O)Nc1c(Cl)ccc(O)c1C` [Compound 153, (R)—N-(6-chloro-3-hydroxy-2-methylphenyl)-4-methoxy-2-((3-methyl-4-((1-methylpyrrolidin-3-yl)oxy)phenyl)amino)pyrimidine-5-carboxamide] were, in that order, ≤ 100 nM and ≤ 10 nM.
On to `COc1nc(Nc2ccc([C@H]3CCCN(C)C3)c(C)c2)ncc1C(=O)Nc1c(Cl)cccc1Br` [Compound 196, (R)—N-(2-bromo-6-chlorophenyl)-4-methoxy-2-((3-methyl-4-(1-methylpiperidin-3-yl)phenyl)amino)pyrimidine-5-carboxamide], for which, in experiment [1], the EC50 was 100 to 500 nM. Moreover, the IC50 in experiment [2] is ≤ 10 nM.
For `COc1nc(Nc2cnn([C@H]3CCCNCC3)c2)ncc1C(=O)Nc1c(Cl)cccc1Cl` (single isomer, unassigned) [Compound 187], the EC50 in experiment [1] is > 1000 nM. The IC50 in experiment [2] is ≤ 10 nM.
The like results for `COc1nc(Nc2ccc(O[C@@H]3CCN(C)C3)c(C)c2)ncc1C(=O)Nc1c(Cl)cccc1Br` [Compound 211] were, in that order, 100 to 500 nM and ≤ 10 nM.
As for `CCOc1nc(Nc2cnn([C@@H](C)CN(C)C)c2)ncc1C(=O)Nc1c(Cl)cccc1Br` [Compound 202, N-(2-bromo-6-chlorophenyl)-2-{1-[(S)-2-(dimethylamino)-1-methylethyl]-4-pyrazolylamino}-4-ethoxy-5-pyrimidinecarboxamide], the EC50 in experiment [1] was > 1000 nM. Also, the IC50 in experiment [2] was ≤ 10 nM.
The corresponding values for `COc1nc(Nc2ccc([C@@H]3CCCNC3)c(C)c2)ncc1C(=O)Nc1c(Cl)cccc1Br` [Compound 199, (S)—N-(2-bromo-6-chlorophenyl)-4-methoxy-2-((3-methyl-4-(piperidin-3-yl)phenyl)amino)pyrimidine-5-carboxamide] are 100 to 500 nM and ≤ 10 nM.

In general, EC50 refers to the concentration that produces a half-maximal response. The term IC50 denotes the concentration at which inhibition is half-maximal.

For the origin of these results see patent publication US20260207618A1, “PYRIMIDINE CARBOXAMIDE COMPOUNDS” (Acrivon Therapeutics, Inc., priority 2022, published 2026).
